Data published in PMC7274539, “The selective glucocorticoid receptor antagonist CORT125281 has tissue-specific activity” (The Journal of Endocrinology, 2020).
pIC50: −log10 of the molar value.

Legend:
[1] = test system: other nuclear receptors; parameters: method as in Kroon et al. 2018; conditions: ref Kroon et al. 2018; cited from earlier work
[2] = test system: GR; conditions: ref Kroon et al. 2018; cited from earlier work
[3] = test system: GR; parameters: method as in Lahteenmaki et al. 1987, Kroon et al. 2018; conditions: half maximal inhibitory concentration of the GR antagonist; ref Lahteenmaki et al. 1987, Kroon et al. 2018; cited from earlier work
[4] = test system: HPA-axis activity; parameters: method as in Kroon et al. 2018; conditions: ref Kroon et al. 2018; cited from earlier work
[5] = test system: male C57Bl/6J mice; assay: Subchronic corticosterone exposure (pellet): body composition, organ weights, leukocytes, plasma insulin, glucose, lipids; format: in vivo; conditions: corticosterone pellet 5 days, 60 mg/kg/day oral gavage
Procedure: (§1) All studies involving animals were approved by the institutional ethics committee on animal care and experimentation at the Leiden University Medical Center. The 8-week old male C57Bl/6J mice (Charles River) were housed in ventilated cages with a 12 h light:12 h darkness regime and ad libitum access to food and water. In the acute corticosterone exposure experiments, mice received a synthetic chow diet (Research Diets, New Brunswick, NJ, USA) containing vehicle or CORT125281 (6, 20 or 60 mg/kg/day, Corcept Therapeutics, Menlo Park, CA, USA) for 6 days. […] Mice were treated daily with vehicle, 60 mg/kg mifepristone (Corcept Therapeutics) or 60 mg/kg CORT125281 (dissolved in PBS with 0.1% Tween 80 and 0.5% hydroxypropylmethylcellullose, Corcept Therapeutics) via oral gavage for 5 days, after which mice were killed by CO2 inhalation. Throughout the experiment, body weight was monitored and body composition was determined with EchoMRI™ (Frankfurt, Germany). After 5 days, blood was collected from the lateral tail vain in paraoxon-coated capillaries after a 6-h fast. Plasma triglyceride, total cholesterol, free fatty acid, glucose and insulin levels were determined using commercially available kits (Roche; Instruchemie, Delfzijl, Netherlands and Crystal Chem, Zaandam, Netherlands). Blood concentrations of the major leukocyte classes, that is, lymphocytes, monocytes and eosinophils, were determined in whole blood using an automatic veterinary hematology analysis (Sysmex XT-2000iV; Goffin Meyvis, Etten-Leur, the Netherlands).
(§2) In both acute and subchronic corticosterone experiments, relevant tissues (including quadriceps muscle, interscapular BAT, gonadal white adipose tissue (WAT), adrenals, spleen, thymus, pituitary and hippocampus) were collected to determine tissue weight and/or for further molecular analysis.

[6] = test system: hypothalamus-pituitary-adrenal (HPA)-axis activity; assay: Basal and novelty stress-induced HPA-axis activity (ACTH, corticosterone, pituitary Pomc, adrenal weight); format: in vivo, C57Bl/6J mice
Procedure: as §1, §2
Novelty stress tests were performed in the morning (between 08:00–12:00 h) after 2 days of exposure to CORT125281. At t = 0, a blood sample was collected, after which mice were placed in a novel cage without bedding. After 10 min, a second blood sample was collected and mice were placed back in their original home cage.
(§3) For dual label in situ hybridization, frozen unfixed pituitaries were embedded in tissue-tek OCT (Sakura Finetek, Alphen aan den Rijn, Netherlands), sliced (12 µm) and collected on glass slides (Superfrost Plus, Thermo Fisher Scientific). Dual label in situ hybridization was performed using the QuantiGene ViewRNA ISH Tissue 2-Plex Assay (Thermo Fisher Scientific) and pictures were captured with a wide-field microscope (DM6B, Leica Microsystems). For 4-plex in situ hybridization, frozen, unfixed brain slices (12 µm) were collected on glass slides at bregma −0.772 mm (PVN) and −1.532 mm (hippocampus). 4-plex in situ hybridization was performed using the RNAScope fluorescent multiplex assay and RNAscope 4-plex ancillary kit (Advanced Cell Diagnostics, Newark, CA, USA) and Opal fluorophores 520, 570, 620 and 690 (PerkinElmer). Pictures were captured with a confocal microscope (SP8 WLL, Leica Microsystems). All pictures were analysed with ImageJ Software (NIH).

[7] = test system: male C57Bl/6J mice; assay: Body weight, food intake and immune cell counts under CORT125281 via the diet; format: in vivo; conditions: for body weight / food intake: 6 days
Procedure: as §1

[8] = test system: GR transcriptional activity; assay: Acute corticosterone exposure or basal conditions: RT-qPCR of GR target genes in tissues; format: in vivo, C57Bl/6J mice
Procedure: as §1, §2
Total RNA was isolated from snap-frozen tissues using TriPure isolation reagent (Roche). After reverse transcription to cDNA (Promega), RT-qPCR was performed using IQ SYBR-Green supermix and MyIQ thermal cycler (Bio-RAD CFX96). Primers were tested for high efficiency (90–110%) and for amplification of a single PCR product. All primer sequences are listed in Supplementary Table 1 (see section on supplementary materials given at the end of this article), with the exception of Ncor1 and Ncor2 which were purchased from Qiagen. Fold change expression was calculated using the 2^−ΔΔ^CT method.

[9] = test system: GR activity in the brain; assay: In situ hybridization of Gilz mRNA, Fkbp5 hnRNA, Nr3c1 and Nr3c2 in hippocampus and PVN; format: in vivo, C57Bl/6J mice
Procedure: as §1, §3

[10] = 60 mg/kg/day, corticosterone 1.5 mg/kg, liver
[11] = 60 mg/kg/day, without corticosterone exposure
[12] = 20 mg/kg/day CORT125281 6 days, corticosterone injection 1 h

## Cn1ncc(S(=O)(=O)N2CC[C@H]3Cc4c(cnn4-c4ccc(F)cc4)C[C@]3(C(=O)c3cc(C(F)(F)F)ccn3)C2)n1 [CORT125281]
[1]
  cross-reactivity with other nuclear receptors: lacks cross-reactivity
[2]
  partial agonism at GR in reporter assays: very low partial agonism
[3]
  pIC50: 6.37
[4]
  diurnal corticosterone rhythm flattened by high-fat diet: restored
[5]
  HOMA-IR: improved
  corticosterone-induced alteration in body weight (BW) gain: did not prevent
  corticosterone-induced hyperlipidaemia (plasma triglycerides, total cholesterol): seemed to modestly reduce
  free fatty acid levels: did not affect
  glucose levels: improved
  lean mass (reduced by corticosterone): not altered
  thymus weight: did not prevent
[5]; 6-h fast
  corticosterone-induced hyperinsulinemia: partially prevented
[6]; 60 mg/kg/day
  adrenal weights: did not alter
  peak and trough corticosterone levels: did not alter
  peak novelty stress-induced corticosterone levels: slightly attenuated
[6]; 60 mg/kg/day, novelty stress
  slope of corticosterone during the recovery phase (t = 30 to 120 min): unaltered
[6]; 6-20 mg/kg/day
  GR (Nr3c1) mRNA expression in the anterior pituitary: increased
  expression of pro-opiomelanocortin (Pomc) in the anterior pituitary: unaltered
  weight of adrenals: unaltered
[6]; 6-20 mg/kg/day, 08:00 h and 18:00 h
  basal peak or trough corticosterone levels: did not alter
[6]; 6 and 20 mg/kg/day vs vehicle, all measured time points, day 2
  corticosterone levels after novelty stress: similar
[6]; 6 and 20 mg/kg/day, 18:00 on day 4
  circulating levels of ACTH: unchanged
[7]; 60 mg/kg/day via diet 6 days, without excess corticosterone exposure
  immune counts (WBC, lymphocytes, monocytes, eosinophils): did not alter
[7]; 60 mg/kg/day via food
  body weight: did not alter
  food intake: did not alter
[7]; 6 and 20 mg/kg/day via food
  body weight: did not alter
  food intake: did not alter
[8]; 60 mg/kg/day via food 6 days, corticosterone 1.5 mg/kg s.c. 1 h before killing, liver
  corticosterone-induced mRNA of GR target genes in liver: complete blockade
[8]; 60 mg/kg/day via food 6 days, corticosterone 1.5 mg/kg, BAT
  corticosterone-induced GR target genes in BAT: inhibition of only a subset of corticosterone-induced genes
[8]; 60 mg/kg/day via food 6 days, corticosterone 1.5 mg/kg, WAT
  corticosterone-induced GR target genes in WAT: no effects
[8]; 60 mg/kg/day via food 6 days, corticosterone 1.5 mg/kg, hippocampus
  corticosterone-induced GR target genes in hippocampus: no effects
[8]; 60 mg/kg/day via food 6 days, corticosterone 1.5 mg/kg, quadriceps muscle
  corticosterone-induced GR target genes in muscle: inhibition of only a subset of corticosterone-induced genes
[8]; [10]
  corticosterone induction of G6pc in liver: a similar pattern was observed
  corticosterone induction of Pepck in liver: blocked the induction
[8]; 60 mg/kg/day, corticosterone 1.5 mg/kg, muscle
  corticosterone induction of Murf1 in muscle: completely blocked
[8]; 60 mg/kg/day, intact animals without prior corticosterone exposure
  mRNA levels of Gilz and G6p in liver: inhibited mRNA levels
[8]; [11]
  Cd36 expression in BAT: upregulated
  GR target gene expression in WAT: did not affect
  GR target gene expression in muscle: did not affect
[8]; 60 mg/kg/day, without corticosterone exposure, to a very modest extent
  expression of Sgk1 and Mt2a in hippocampus: downregulated
[8]; 6-20 mg/kg/day doses, BAT
  antagonistic actions on corticosterone-induced genes in BAT: completely lost
[8]; 6 and 20 mg/kg/day, solvent injection
  Mt2a expression in liver of solvent-injected mice: inhibited
[8]; lower doses 6 and 20 mg/kg/day, 6 days, corticosterone 1 h before tissue collection
  corticosterone-induced GR transcriptional activity of Fkbp5, Gilz, Sgk1 and Mt2a in liver: partially inhibited
[8]; lower doses 6 and 20 mg/kg/day, WAT
  GR transcriptional activity in WAT: did not inhibit
[8]; via food 6 days, liver
  dose required to attenuate corticosterone-induced expression of Fkbp5 and Gilz in liver: 20 mg/kg/day
  dose sufficient to attenuate corticosterone-induced expression of Sgk1 and Mt2a in liver: 6 mg/kg/day
[9]; [12]
  Nr3c1 (Gr) mRNA levels in the hippocampus: Neither corticosterone nor CORT125281 affected
  Nr3c1 or Nr3c2 expression in the PVN: Neither corticosterone nor CORT125281 affected
[9]; 6-20 mg/kg/day
  basal mineralocorticoid receptor (MR; Nr3c2) mRNA expression in the hippocampus: increased
  corticosterone-induced Fkbp5 hnRNA and Gilz mRNA levels in the PVN: had little effect
[9]; 6-20 mg/kg/day, corticosterone 1 h before tissue collection
  corticosterone induction of Gilz mRNA and Fkbp5 hnRNA in hippocampal subfields: did not prevent this induction
[9]; 6-20 mg/kg/day, hippocampus
  basal levels of Fkbp5 hnRNA in CA2 and CA3 regions: upregulated
